{"source": "patent US12157717B2", "about": "“Compounds for the treatment of bovine or swine respiratory disease” (Intervet Inc., priority 2018, dated 2024)"}
{"tested_on": "Mannheimia haemolytica MH 6357 (M7/2)", "assay": "MIC, broth-microdilution (CLSI), strain MH 6357", "assay_type": "cell-based", "conditions": "Mannheimia haemolytica M7/2, reference strain (cattle infection strain)", "method": "(§1) The Minimum inhibitory concentrations (MIC) of compounds according to the invention for a number of veterinary bacterial pathogens were determined by the broth-microdilution method according to CLSI document VETO 1-A4.\n(§2) Microdilution trays containing a doubling dilution series of the test compound were used for the tests. The MIC results were interpreted according to the CLSI documents VET01-S3. The lowest concentration of compound at which no visible growth (i.e. no turbidity) detected by the unaided eye was recorded as the MIC.", "units": {"MIC MH 6357": "µM"}}
{"smiles": "CNC(=O)C(NC(=O)c1ccc(C#Cc2ccc(CNCCOC)cc2)cc1)C(=O)NO", "note": "(centres unmarked) [Compound 3]", "MIC MH 6357": 1.6}
{"smiles": "C#CCNCc1ccc(C#Cc2ccc(C(=O)NC(C(=O)NC)C(=O)NO)cc2)cc1", "note": "(centres unmarked) [Compound 20]", "MIC MH 6357": 0.2}
{"smiles": "CNC(=O)C(C(=O)NO)N(C)C(=O)c1ccc(C#Cc2ccc(CN3CCOCC3)cc2)cc1", "note": "(centres unmarked) [Compound 22]", "MIC MH 6357": 1.6}
{"smiles": "CNC(=O)C(NC(=O)c1ccc(C#Cc2ccc(CNC3CC3)cc2)cc1)C(=O)NO", "note": "(centres unmarked) [Compound 1]", "MIC MH 6357": 0.4}
{"smiles": "CNC(=O)C(NC(=O)c1ccc(C#Cc2ccc(CNCc3ccnc(Cl)c3)cc2)cc1)C(=O)NO", "note": "(centres unmarked) [Compound 12]", "MIC MH 6357": 0.2}
{"tested_on": "Mannheimia haemolytica MH 6374 (ATCC 33396)", "assay": "MIC, broth-microdilution (CLSI), strain MH 6374", "assay_type": "cell-based", "conditions": "Mannheimia haemolytica ATCC 33396, reference strain", "method": "as §1, §2", "units": {"MIC MH 6374": "µM"}}
{"smiles": "CNC(=O)C(NC(=O)c1ccc(C#Cc2ccc(CNCCOC)cc2)cc1)C(=O)NO", "note": "(centres unmarked) [Compound 3]", "MIC MH 6374": 3.1}
{"smiles": "C#CCNCc1ccc(C#Cc2ccc(C(=O)NC(C(=O)NC)C(=O)NO)cc2)cc1", "note": "(centres unmarked) [Compound 20]", "MIC MH 6374": 0.2}
{"smiles": "CNC(=O)C(C(=O)NO)N(C)C(=O)c1ccc(C#Cc2ccc(CN3CCOCC3)cc2)cc1", "note": "(centres unmarked) [Compound 22]", "MIC MH 6374": 1.6}
{"smiles": "CNC(=O)C(NC(=O)c1ccc(C#Cc2ccc(CNC3CC3)cc2)cc1)C(=O)NO", "note": "(centres unmarked) [Compound 1]", "MIC MH 6374": 0.4}
{"smiles": "CNC(=O)C(NC(=O)c1ccc(C#Cc2ccc(CNCc3ccnc(Cl)c3)cc2)cc1)C(=O)NO", "note": "(centres unmarked) [Compound 12]", "MIC MH 6374": 0.4}
{"tested_on": "Mannheimia haemolytica MH 10720 (154)", "assay": "MIC, broth-microdilution (CLSI), strain MH 10720", "assay_type": "cell-based", "conditions": "Mannheimia haemolytica 154, BRD field isolate", "method": "as §1, §2", "units": {"MIC MH 10720": "µM"}}
{"smiles": "CNC(=O)C(NC(=O)c1ccc(C#Cc2ccc(CNCCOC)cc2)cc1)C(=O)NO", "note": "(centres unmarked) [Compound 3]", "MIC MH 10720": 0.8}
{"smiles": "C#CCNCc1ccc(C#Cc2ccc(C(=O)NC(C(=O)NC)C(=O)NO)cc2)cc1", "note": "(centres unmarked) [Compound 20]", "MIC MH 10720": "≤0.1"}
{"smiles": "CNC(=O)C(C(=O)NO)N(C)C(=O)c1ccc(C#Cc2ccc(CN3CCOCC3)cc2)cc1", "note": "(centres unmarked) [Compound 22]", "MIC MH 10720": 0.4}
{"smiles": "CNC(=O)C(NC(=O)c1ccc(C#Cc2ccc(CNC3CC3)cc2)cc1)C(=O)NO", "note": "(centres unmarked) [Compound 1]", "MIC MH 10720": "≤0.1"}
{"smiles": "CNC(=O)C(NC(=O)c1ccc(C#Cc2ccc(CNCc3ccnc(Cl)c3)cc2)cc1)C(=O)NO", "note": "(centres unmarked) [Compound 12]", "MIC MH 10720": "≤0.1"}
{"tested_on": "Mannheimia haemolytica MH 12587 (1071), macrolide-resistance: erm+, E+", "assay": "MIC, broth-microdilution (CLSI), strain MH 12587", "assay_type": "cell-based", "conditions": "Mannheimia haemolytica 1071, BRD field isolate", "method": "as §1, §2", "units": {"MIC MH 12587": "µM"}}
{"smiles": "CNC(=O)C(NC(=O)c1ccc(C#Cc2ccc(CNCCOC)cc2)cc1)C(=O)NO", "note": "(centres unmarked) [Compound 3]", "MIC MH 12587": 6.3}
{"smiles": "C#CCNCc1ccc(C#Cc2ccc(C(=O)NC(C(=O)NC)C(=O)NO)cc2)cc1", "note": "(centres unmarked) [Compound 20]", "MIC MH 12587": 0.8}
{"smiles": "CNC(=O)C(C(=O)NO)N(C)C(=O)c1ccc(C#Cc2ccc(CN3CCOCC3)cc2)cc1", "note": "(centres unmarked) [Compound 22]", "MIC MH 12587": 6.3}
{"smiles": "CNC(=O)C(NC(=O)c1ccc(C#Cc2ccc(CNC3CC3)cc2)cc1)C(=O)NO", "note": "(centres unmarked) [Compound 1]", "MIC MH 12587": 0.8}
{"smiles": "CNC(=O)C(NC(=O)c1ccc(C#Cc2ccc(CNCc3ccnc(Cl)c3)cc2)cc1)C(=O)NO", "note": "(centres unmarked) [Compound 12]", "MIC MH 12587": 0.8}
{"tested_on": "Mannheimia haemolytica MH 13065 (XB0446-6003.9)", "assay": "MIC, broth-microdilution (CLSI), strain MH 13065", "assay_type": "cell-based", "conditions": "Mannheimia haemolytica XB0446-6003.9, BRD field isolate", "method": "as §1, §2", "units": {"MIC MH 13065": "µM"}}
{"smiles": "CNC(=O)C(NC(=O)c1ccc(C#Cc2ccc(CNCCOC)cc2)cc1)C(=O)NO", "note": "(centres unmarked) [Compound 3]", "MIC MH 13065": 1.6}
{"smiles": "C#CCNCc1ccc(C#Cc2ccc(C(=O)NC(C(=O)NC)C(=O)NO)cc2)cc1", "note": "(centres unmarked) [Compound 20]", "MIC MH 13065": 0.2}
{"smiles": "CNC(=O)C(C(=O)NO)N(C)C(=O)c1ccc(C#Cc2ccc(CN3CCOCC3)cc2)cc1", "note": "(centres unmarked) [Compound 22]", "MIC MH 13065": 3.1}
{"smiles": "CNC(=O)C(NC(=O)c1ccc(C#Cc2ccc(CNC3CC3)cc2)cc1)C(=O)NO", "note": "(centres unmarked) [Compound 1]", "MIC MH 13065": 0.4}
{"smiles": "CNC(=O)C(NC(=O)c1ccc(C#Cc2ccc(CNCc3ccnc(Cl)c3)cc2)cc1)C(=O)NO", "note": "(centres unmarked) [Compound 12]", "MIC MH 13065": 0.4}
{"tested_on": "Mannheimia haemolytica MH 13093 (XB0472-6014.1)", "assay": "MIC, broth-microdilution (CLSI), strain MH 13093", "assay_type": "cell-based", "conditions": "Mannheimia haemolytica XB0472-6014.1, BRD field isolate", "method": "as §1, §2", "units": {"MIC MH 13093": "µM"}}
{"smiles": "CNC(=O)C(NC(=O)c1ccc(C#Cc2ccc(CNCCOC)cc2)cc1)C(=O)NO", "note": "(centres unmarked) [Compound 3]", "MIC MH 13093": 1.6}
{"smiles": "C#CCNCc1ccc(C#Cc2ccc(C(=O)NC(C(=O)NC)C(=O)NO)cc2)cc1", "note": "(centres unmarked) [Compound 20]", "MIC MH 13093": 0.4}
{"smiles": "CNC(=O)C(C(=O)NO)N(C)C(=O)c1ccc(C#Cc2ccc(CN3CCOCC3)cc2)cc1", "note": "(centres unmarked) [Compound 22]", "MIC MH 13093": 3.1}
{"smiles": "CNC(=O)C(NC(=O)c1ccc(C#Cc2ccc(CNC3CC3)cc2)cc1)C(=O)NO", "note": "(centres unmarked) [Compound 1]", "MIC MH 13093": 1.6}
{"smiles": "CNC(=O)C(NC(=O)c1ccc(C#Cc2ccc(CNCc3ccnc(Cl)c3)cc2)cc1)C(=O)NO", "note": "(centres unmarked) [Compound 12]", "MIC MH 13093": 0.4}
{"tested_on": "Pasteurella multocida PM 6267 (P 2225 (L386))", "assay": "MIC, broth-microdilution (CLSI), strain PM 6267", "assay_type": "cell-based", "conditions": "Pasteurella multocida P 2225 (L386), reference strain (mouse infection strain)", "method": "as §1, §2", "units": {"MIC PM 6267": "µM"}}
{"smiles": "CNC(=O)C(NC(=O)c1ccc(C#Cc2ccc(CNCCOC)cc2)cc1)C(=O)NO", "note": "(centres unmarked) [Compound 3]", "MIC PM 6267": 0.2}
{"smiles": "C#CCNCc1ccc(C#Cc2ccc(C(=O)NC(C(=O)NC)C(=O)NO)cc2)cc1", "note": "(centres unmarked) [Compound 20]", "MIC PM 6267": "≤0.1"}
{"smiles": "CNC(=O)C(C(=O)NO)N(C)C(=O)c1ccc(C#Cc2ccc(CN3CCOCC3)cc2)cc1", "note": "(centres unmarked) [Compound 22]", "MIC PM 6267": "≤0.1"}
{"smiles": "CNC(=O)C(NC(=O)c1ccc(C#Cc2ccc(CNC3CC3)cc2)cc1)C(=O)NO", "note": "(centres unmarked) [Compound 1]", "MIC PM 6267": "≤0.1"}
{"smiles": "CNC(=O)C(NC(=O)c1ccc(C#Cc2ccc(CNCc3ccnc(Cl)c3)cc2)cc1)C(=O)NO", "note": "(centres unmarked) [Compound 12]", "MIC PM 6267": "≤0.1"}
{"tested_on": "Pasteurella multocida PM 6391 (ATCC 43137)", "assay": "MIC, broth-microdilution (CLSI), strain PM 6391", "assay_type": "cell-based", "conditions": "Pasteurella multocida ATCC 43137, reference strain", "method": "as §1, §2", "units": {"MIC PM 6391": "µM"}}
{"smiles": "CNC(=O)C(NC(=O)c1ccc(C#Cc2ccc(CNCCOC)cc2)cc1)C(=O)NO", "note": "(centres unmarked) [Compound 3]", "MIC PM 6391": 0.4}
{"smiles": "C#CCNCc1ccc(C#Cc2ccc(C(=O)NC(C(=O)NC)C(=O)NO)cc2)cc1", "note": "(centres unmarked) [Compound 20]", "MIC PM 6391": "≤0.1"}
{"smiles": "CNC(=O)C(C(=O)NO)N(C)C(=O)c1ccc(C#Cc2ccc(CN3CCOCC3)cc2)cc1", "note": "(centres unmarked) [Compound 22]", "MIC PM 6391": 0.4}
{"smiles": "CNC(=O)C(NC(=O)c1ccc(C#Cc2ccc(CNC3CC3)cc2)cc1)C(=O)NO", "note": "(centres unmarked) [Compound 1]", "MIC PM 6391": "≤0.1"}
{"smiles": "CNC(=O)C(NC(=O)c1ccc(C#Cc2ccc(CNCc3ccnc(Cl)c3)cc2)cc1)C(=O)NO", "note": "(centres unmarked) [Compound 12]", "MIC PM 6391": "≤0.1"}
{"tested_on": "Pasteurella multocida PM 10775 (080130003051)", "assay": "MIC, broth-microdilution (CLSI), strain PM 10775", "assay_type": "cell-based", "conditions": "Pasteurella multocida 080130003051, BRD field isolate", "method": "as §1, §2", "units": {"MIC PM 10775": "µM"}}
{"smiles": "CNC(=O)C(NC(=O)c1ccc(C#Cc2ccc(CNCCOC)cc2)cc1)C(=O)NO", "note": "(centres unmarked) [Compound 3]", "MIC PM 10775": "≤0.1"}
{"smiles": "C#CCNCc1ccc(C#Cc2ccc(C(=O)NC(C(=O)NC)C(=O)NO)cc2)cc1", "note": "(centres unmarked) [Compound 20]", "MIC PM 10775": "≤0.1"}
{"smiles": "CNC(=O)C(C(=O)NO)N(C)C(=O)c1ccc(C#Cc2ccc(CN3CCOCC3)cc2)cc1", "note": "(centres unmarked) [Compound 22]", "MIC PM 10775": "≤0.1"}
{"smiles": "CNC(=O)C(NC(=O)c1ccc(C#Cc2ccc(CNC3CC3)cc2)cc1)C(=O)NO", "note": "(centres unmarked) [Compound 1]", "MIC PM 10775": "≤0.1"}
{"smiles": "CNC(=O)C(NC(=O)c1ccc(C#Cc2ccc(CNCc3ccnc(Cl)c3)cc2)cc1)C(=O)NO", "note": "(centres unmarked) [Compound 12]", "MIC PM 10775": "≤0.1"}
{"tested_on": "Pasteurella multocida PM 12080 (IV102277-0093)", "assay": "MIC, broth-microdilution (CLSI), strain PM 12080", "assay_type": "cell-based", "conditions": "Pasteurella multocida IV102277-0093, BRD field isolate", "method": "as §1, §2", "units": {"MIC PM 12080": "µM"}}
{"smiles": "CNC(=O)C(NC(=O)c1ccc(C#Cc2ccc(CNCCOC)cc2)cc1)C(=O)NO", "note": "(centres unmarked) [Compound 3]", "MIC PM 12080": 0.4}
{"smiles": "C#CCNCc1ccc(C#Cc2ccc(C(=O)NC(C(=O)NC)C(=O)NO)cc2)cc1", "note": "(centres unmarked) [Compound 20]", "MIC PM 12080": "≤0.1"}
{"smiles": "CNC(=O)C(C(=O)NO)N(C)C(=O)c1ccc(C#Cc2ccc(CN3CCOCC3)cc2)cc1", "note": "(centres unmarked) [Compound 22]", "MIC PM 12080": 0.4}
{"smiles": "CNC(=O)C(NC(=O)c1ccc(C#Cc2ccc(CNC3CC3)cc2)cc1)C(=O)NO", "note": "(centres unmarked) [Compound 1]", "MIC PM 12080": "≤0.1"}
{"smiles": "CNC(=O)C(NC(=O)c1ccc(C#Cc2ccc(CNCc3ccnc(Cl)c3)cc2)cc1)C(=O)NO", "note": "(centres unmarked) [Compound 12]", "MIC PM 12080": "≤0.1"}
